{
  "source": "patent US20020137781A1",
  "about": "“Preparation and use of enantiomer-pure 2,4-disubstituted oxazolines” (priority 1999, published 2002)",
  "key": {"[1]": {"tested_on": "Nilaparvata lugens", "test": "Effect against Nilaparvata lugens", "type": "in vivo", "conditions": "400 ppm spray on rice plants, second and third instar larvae, 21 days", "procedure": "Rice plants are sprayed with an aqueous emulsion spray mixture containing 400 ppm of active ingredient. After the spray coating has dried on, the rice plants are colonised with second and third instar larvae of plant and leaf-hoppers. 21 days later they are evaluated. The percentage reduction of the population (% response) is determined by comparing the number of surviving plant and leaf-hoppers on the treated plants with those on the untreated plants."}, "[2]": {"tested_on": "Boophilus microplus", "test": "In vitro effect on Boophilus microplus", "conditions": "100 to 0.32 ppm; BIARRA and ULAM strain identical", "procedure": "Four test series each of 10 engorged female adults of Boophilus microplus are stuck to a plastic plate and covered for 1 hour with a wad of cottonwool soaked with an aqueous suspension or emulsion of the test substance. The test is carried out with concentrations of 100, 32, 10, 3.2, 1.0 and 0.32 ppm. The wad of cottonwool is then removed, and the ticks are incubated for 28 days for the eggs to be laid. The effect on Boophilus microplus is assessed according to the following 5 criteria:\n1. Number of dead females (immobile with black discoloration) before ovipositon;\n2. Number of ticks surviving for several days, but no eggs laid;\n3. Number of cases in which eggs are laid, but nothing is hatched;\nThis test is carried out with both the BIARRA and the ULAM strain, and the results in both cases are identical."}, "[3]": {"tested_on": "Dermanyssus gallinae", "test": "Comparative in vitro effect on Dermanyssus gallinae", "procedure": "15 fed adult female mites of the genus Dermanyssus gallinae fixed on a plastic adhesive film are brought into contact with 50 μl of an aqueous suspension or emulsion of the test substance. The test is carried out with concentrations of 32, 10, 3.2, 1.0, 0.32 to 0.1 ppm. After drying, the film is stuck onto a glass disc. This creates a kind of air bubble around each mite, the lower surface of which is formed by the glass disc and the upper surface by a bulging of the adhesive film. This bubble contains sufficient air for the mite to avoid suffocating. After 5 days, the effect of the test substance is evaluated with the aid of a stereo-microscope by assessing the effect on mortality, egg deposition, egg quality, hatching rate, pupation rate, and development of protonymphs according to the following 4 criteria:\n1. if 9 to 10 mites are dead, this indicates a lethal effect (M);\n3. if 2 or more mites survive and produce eggs, but no larvae hatch from these eggs and no protonymphs develop, this indicates a development-inhibiting effect (H);\n4. if 2 or more mites survive and lay the usual number of normal eggs, from which larvae hatch and develop into protonymphs, this indicates no activity."}, "[4]": {"tested_on": "Heliothis virescens", "test": "Ovicidal/larvicidal effect on Heliothis virescens", "type": "in vivo", "conditions": "400 ppm spray on eggs laid on cotton, after 8 days", "from_the_text": "Eggs of Heliothis virescens laid on cotton are sprayed with an aqueous emulsion spray mixture containing 400 ppm of active ingredient. After 8 days, the percentage hatching rate of the eggs and the survival rate of the caterpillars are compared with those for untreated controls (% reduction of population)"}, "[5]": {"tested_on": "Crocidolomia binotalis", "test": "Effect against Crocidolomia binotalis", "type": "in vivo", "conditions": "400 ppm spray on cabbage plants, third-instar caterpillars, three days", "procedure": "Young cabbage plants are sprayed with an aqueous emulsion spray mixture containing 400 ppm of active ingredient. After the spray coating has dried on, the cabbage plants are colonised with 10 third-instar caterpillars of Crocidolomia binotalis and placed in a plastic container. Three days later they are evaluated. The percentage reduction of the population and of the feeding damage (% response) is determined by comparing the total number of dead caterpillars and the feeding damage on the treated plants with those on the untreated plants."}, "[6]": {"tested_on": "Tetranychus urticae", "test": "Effect against Tetranychus urticae", "type": "in vivo", "conditions": "400 ppm spray on bean plants, mixed population, 6 days at 25° C.", "procedure": "Young bean plants are colonised with a mixed population of Tetranychus urticae and, one day later, are sprayed with an aqueous emulsion spray mixture containing 400 ppm of active ingredient. The plants are subsequently incubated for 6 days at 25° C. and then evaluated. The percentage reduction of the population (% response) is determined by comparing the total number of dead eggs, larvae, and adults on the treated plants with those on the untreated plants."}, "[7]": {"tested_on": "Blattella germanica", "test": "Effect against Blattella germanica", "type": "in vivo", "conditions": "application rate of 2 g/m^2, nymphs exposed 2 hours, evaluated after 48 hours", "procedure": "Sufficient acetonic solution (0.1%) of the active ingredient is added to a Petri dish for the quantity thereof to correspond to an application rate of 2 g/m^2. When the solvent has evaporated, 20 nymphs of Blattella germanica (last nymph stage) are placed in the dish and exposed to the action of the test substance for 2 hours. The nymphs are then anaesthetised with CO2, added to a fresh Petri dish and kept in the dark at 25° and 50 to 70% humidity. After 48 hours, the insecticidal effect is evaluated by determining the mortality rate."}, "[8]": {"tested_on": "Tetranychus urticae", "test": "Ovicidal effect on Tetranychus urticae", "type": "in vivo", "conditions": "400 ppm spray on bean plants colonised with eggs, 6 days at 25° C.", "procedure": "Young bean plants are colonised with females of Tetranychus urticae, which are removed again after 24 hours. The plants colonised with eggs are sprayed with an aqueous emulsion spray mixture containing 400 ppm of active ingredient. The plants are incubated for 6 days at 25° C. and then evaluated. The percentage reduction of the population (% response) is determined by comparing the total number of dead eggs, larvae, and adults on the treated plants with those on the untreated plants."}},
  "data": [
    {"compound": "Fc1cccc(F)c1C1=NC(c2ccc(-c3ccc(C(F)(F)F)cc3)cc2)CO1", "note": "(single isomer, unassigned) [1.1, 2-(2,6-difluoro-phenyl)-4-(4′-trifluoromethylbiphenyl-4-yl)-4,5-dihydro-oxazole]", "values": [
      {"measurement": "percentage reduction of the population (% response)", "setting": "[1]", "result": "more than 80%"},
      {"measurement": "activity on Boophilus microplus (in words)", "setting": "[2]", "result": "most active test substance"},
      {"measurement": "concentration that completely inhibits the development of protonymphs", "setting": "[3]; after 5 days", "result": "≤ 0.0064", "unit": "ppm"},
      {"measurement": "Type of activity", "setting": "[3]; at the EC100 of the same table line, listed as Enantiomer A", "result": 1},
      {"measurement": "EC100 (minimum dosage to reach 100% mortality)", "setting": "[3]; fed adult female mites, evaluated after 5 days, listed as Enantiomer A", "result": 0.0064, "unit": "ppm"},
      {"measurement": "activity relative to enantiomer B", "setting": "[3]; ratio of EC100", "result": "3000-5000 times"},
      {"measurement": "activity relative to the racemate", "setting": "[3]; ratio of EC100", "result": "more than 30 times"},
      {"measurement": "% reduction of population (hatching rate of eggs and survival rate of caterpillars)", "setting": "[4]", "result": "more than 80%"},
      {"measurement": "percentage reduction of the population and of the feeding damage (% response)", "setting": "[5]", "result": "more than 80%"},
      {"measurement": "percentage reduction of the population (% response)", "setting": "[6]", "result": "more than 80%"},
      {"measurement": "mortality rate (response)", "setting": "[7]", "result": "more than 80%"},
      {"measurement": "percentage reduction of the population (% response)", "setting": "[8]", "result": "more than 80%"}
    ]}
  ]
}
